“Also recorded” adds a separate entry of the source. Where two headings read alike, the source gives them in different places.
Tests used:
[1] = target: T1, recombinant human RPE65 and LRAT (visual cycle isomerase) (Homo sapiens, UniProt Q16518); experiment: Human in vitro isomerase inhibition assay; settings: comparison compounds
T1 sequence (Q16518 2-533): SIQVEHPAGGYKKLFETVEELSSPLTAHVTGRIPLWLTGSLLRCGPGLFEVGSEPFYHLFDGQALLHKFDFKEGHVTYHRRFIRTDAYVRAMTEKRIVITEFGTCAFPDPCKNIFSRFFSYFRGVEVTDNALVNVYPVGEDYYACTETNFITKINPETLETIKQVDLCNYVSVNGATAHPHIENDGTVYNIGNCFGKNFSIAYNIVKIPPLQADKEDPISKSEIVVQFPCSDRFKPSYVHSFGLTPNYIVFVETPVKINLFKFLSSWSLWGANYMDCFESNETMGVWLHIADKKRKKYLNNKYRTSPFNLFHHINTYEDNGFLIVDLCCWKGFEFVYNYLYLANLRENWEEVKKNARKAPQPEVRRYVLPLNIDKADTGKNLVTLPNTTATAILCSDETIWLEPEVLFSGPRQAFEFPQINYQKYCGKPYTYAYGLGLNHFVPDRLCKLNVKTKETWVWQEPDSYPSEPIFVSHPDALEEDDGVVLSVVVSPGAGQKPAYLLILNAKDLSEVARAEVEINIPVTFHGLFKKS

[2] = test system: isomerase (recovery of 11-cis-retinal after bleaching); experiment: In vivo murine isomerase assay; settings: mice, oral gavage
Method: The capability of compounds described herein to inhibit isomerase was determined by an in vivo murine isomerase assay. […] The recovery of 11-cis-retinal after bleaching can be used to estimate the activity of isomerase in vivo. Delayed recovery, as represented by lower 11-cis-retinal oxime levels, indicates inhibition of isomerization reaction.
Mice were gavaged with the test compound. […] The mice were allowed to recover 2 hours in the dark. The animals were then sacrificed by carbon dioxide inhalation. Retinoids were extracted from the eye and the regeneration of 11-cis-retinal was assessed at various time intervals.
After the mice were sacrificed, the eyes were immediately removed and placed in liquid nitrogen for storage.
The eyes were placed in 500 μL of bis-tris propane buffer (10 mM, pH˜7.3) and 20 μL of 0.8M hydroxile amine (pH˜7.3). The eyes were cut up into small pieces with small iris scissors and then thoroughly homogenized at 30000 rpm with a mechanical homogenizer (Polytron PT 1300 D) in the tube until no visible tissue remained. 500 μL of methanol and 500 μL of heptane were added to each tube. The tubes were attached to a vortexer so that the contents were mixed thoroughly for 15 minutes in room temperature. The organic phase was separated from the aqueous phase by centrifugation for 10 min at 13K rpm, 4° C. 240 μL of the solution from the top layer (organic phase) was removed and transferred to clean 300 μl glass inserts in HPLC vials using glass pipette and the vials were crimped shut tightly.
The samples were analyzed on an Agilent 1100 HPLC system with normal phase column: SILICA (Beckman Coutlier, dp 5 μm, 4.6 mM×250 mM). […] Loading volume for each sample was 100 μA detection wavelength was 360 nm. The area under the curve for 11-cis retinal oxime was calculated by Agilent Chemstation software and was recorded manually. Data processing was performed using Prizm software.
Positive control mice (no compound administered) were sacrificed fully dark-adapted and the eye retinoids analyzed. Light (bleached) control mice (no compound administered) were sacrificed and retinoids isolated and analyzed immediately after light treatment.
A time course study was performed to determine the isomerase inhibitory activity of the test compound. […] The animals were then “photo-bleached” (5000 Lux white light for 10 minutes) at 2, 4, 8, 16 and 24 hours after dosing, and returned to darkness to allow recovery of the 11-cis-retinal content of the eyes. Mice were sacrificed 2 hours after bleaching, eyes were enucleated, and retinoid content is analyzed by HPLC.
Recovery control mice (vehicle-only treated) were light-treated and left to recover for 2 hours in the dark before sacrifice and analysis. Light control mice (vehicle only treated) were sacrificed for analysis immediately after photo-bleaching.
An in vivo dose response isomerase inhibition study was performed with test compound. […] Recovery and retinoid analysis were performed as described above. Dark control mice were vehicle-only treated, sacrificed fully dark adapted without light treatment, and analyzed. Recovery control mice and light control mice were included in the study as per the initial phase.

[3] = test system: regeneration of 11-cis-retinal; experiment: Single dose time course in the in vivo isomerase assay at 0.3 mg/kg; parameters: species or system BALB/c mice; settings: BALB/c mice, single oral 0.3 mg/kg; for activity at 0.3 mg/kg: Mus musculus, read-out: Percent Control (Avg. % Inhibition)
Method: (§1) All test compounds were stored at room temperature, dessicated.
The compounds were dissolved in di-water at the concentration of 0.068 mg/mL and stored overnight at 4° C.
52 Male BALB/c mice (Charles River Laboratories) were used for this study. The mice were approximately 8 weeks at the initiation of dosing with an average body weight of 23 grams.
The day prior to dose administration 52 BALB/c mice were placed into a dark room and dark adapted for a minimum of 12 hours prior to dose administration. The mice were maintained in the dark for the duration of the study.
(§2) Each animal was removed from its cage and dosed accordingly to the study design in Table 10 (see below). Each animal was administered 0.1 mL of the appropriate test article or vehicle orally using a 1 mL syringe fitted with a 23 gauge oral gavage needle. At 2, 4, 6, 8, 16 or 24 hours following dose administration, animals were removed from the dark and exposed to 5000 Lux white light for 10 minutes to photobleach their eyes. Following the completion of the photobleach the animals were returned to the dark for 2 hours to allow for the regeneration of 11-cis-retinal in the eyes. Two hours after photobleaching each animal was euthanized with carbon dioxide followed by cervical dislocation, in the dark under red light. The light control group was euthanized immediately following photobleaching. Immediately following the cervical dislocation both eyes of each animal were removed and transferred into separate tubes, flash frozen in liquid nitrogen and stored in the dark at −80° C. until processing and analysis.
(§3) All sample processing procedures were performed in the dark under red light.
Extracted samples were analyzed using an Agilent 1100 HPLC system according to the procedure outlined in Table 12 (see below)
(§4) HPLC analysis of the eyes measures the peak area units of the 110cis-Ral-Oxime_syn. Signal.
(§5) Data analysis % inhibition (drug vs. recovery control). % control (drug vs. light control), and One-way ANOVA (followed by Tukey's Multiple Comparison) were performed using peak area units and performed by Prism software. Data are represented as mean and standard deviation.

[4] = test system: retinal isomerase activity (recovery of 11-cis-retinal); experiment: Comparative in vivo murine isomerase assay, dose response; parameters: species or system BALB/c mice; settings: BALB/c mice, 2 hours; for Avg. % Inhibition: 11-cis-retinal, drug vs. recovery control
Method: as §1
On the day prior to dose administration compound A and compound D were weighed into new empty glass vials. The compounds were dissolved in di-water at the concentration of 0.833 mg/mL compound A and 0.892 mg/mL compound D, serially diluted into various concentrations, and stored overnight at 4° C.
56 Male BALB/c mice (Charles River Laboratories) were used for this study. The mice were approximately 8 weeks at the initiation of dosing with an average body weight of 24 grams.
The day prior to dose administration 56 BALB/c mice were placed into a dark room and dark adapted for a minimum of 12 hours prior to dose administration. The mice were maintained in the dark for the duration of the study.
as §2, with “Table 4” for “Table 10”, “appropriate compound” for “appropriate test article”, “vehicle via oral gavage” for “vehicle orally”, “needle. Two” for “needle. At 2, 4, 6, 8, 16 or 24”
as §3
Extracted samples were analyzed using an Agilent 1100 HPLC system according to the procedure outlined in Table 6 (see below)
as §4, §5

`NCC[C@@H](O)c1cccc(NCC2CCCCC2)c1` gave an IC50 [1] of 6.3 nM.

For `NCC[C@@H](O)c1cccc(OCC2CCCOC2)c1` (mixture of isomers) [Example 3, (1R)-3-Amino-1-(3-((tetrahydro-2H-pyran-3-yl)methoxy)phenyl)propan-1-ol], the “% Inhibition” value ([2]; dose 0.3 mg/kg, time 2 h) was 75.1%.

`COC(=O)N1CCC(COc2cccc([C@H](O)CCN)c2)CC1` [Example 17, (R)-Methyl 4-((3-(3-amino-1-hydroxypropyl)phenoxy)methyl)piperidine-1-carboxylate] was tested, and the “% Inhibition” value ([2]; dose 1 mg/kg, time 4 h) was 85%.

`NCCC(O)c1cccc(OCC2CCCCO2)c1` (stereo not shown) [compound D, reference compound] was tested, and the “significance of inhibitory effect on the recovery of 11-cis-retinal vs. recovery control” value ([3]; 2, 4, 6, 8, 16 and 24 hours, 0.3 mg/kg) was “not a statistically significant difference, P>0.05 for any time points; also recorded: no significant inhibitory effect at any time points; also recorded: did not exhibit a significant difference from the control group at any time point”, the activity at 0.3 mg/kg ([3]; time point 2 hours) was 86.8% and the activity at 0.3 mg/kg ([3]; time point 4 hours) was 102%. For the same molecule, the activity at 0.3 mg/kg ([3]; time point 6 hours) was 87.9%, the activity at 0.3 mg/kg ([3]; time point 8 hours) was 94.6% and the activity at 0.3 mg/kg ([3]; time point 16 hours) was 104%. The activity at 0.3 mg/kg ([3]; time point 24 hours) was 89.5%, the “Avg. % Inhibition” value ([4]; oral 0.3 mg/kg, 0.3 mg/kg) was “no inhibition” and the “Avg. % Inhibition” value ([4]; oral 3 mg/kg, 3 mg/kg) was “same level of inhibition”. For the same molecule, the “significance of inhibitory effect on the recovery of 11-cis-retinal vs. recovery control” value ([4]; single oral dose 0.03-3 mg/kg) was “statistically significant difference, P<0.001 for 1 and 3 mg/kg dose levels; also recorded: significant inhibitory effect at 1 mg/kg and 3 mg/kg dose levels”, the “IC50 (dose response experiment)” value ([4]; single oral dose) was 0.59 mg/kg and the “dose at which 11-cis-retinal recovery was inhibited by 50%” value ([4]; single oral dose) was 0.59 mg/kg. The IC50 [1] was 24 nM.
